# Assay: light fastness test (xenon fadeometer, percentage fading)
# Type: physicochemical
# Conditions: Table A2, dyes of Table A1, 50° C., 70 kJ/m^2
# Protocol: The light fastness test was conducted as follows.
# Irradiation was conducted by means of a xenon fadeometer Ci35A (manufactured by Atlas) under conditions of a black panel temperature of 50° C. and an integrating irradiation energy of 70 kJ/m^2.
# The percentage fading was determined from a density change around an initial density of 1.0 according to the following equation.
# Percentage fading=(1-I/I0)×100 (%)
# I=optical density after irradiation; and
# I0 =optical density before irradiation.
# .largecircle.: less than 20% in the percentage fading
# X : 20% or more in the percentage fading
row,SMILES,Light fastness
1,CCN(CCCl)c1ccc(N=C2C=C(NC(=O)C3CCCC3)C(=O)C=C2NC(C)=O)c(NC(=O)NC)c1 [compound 18],.largecircle. (less than 20% in the percentage fading)
2,CCN(CCOC)c1ccc(N=C2C=C(NC(=O)c3ccsc3)C(=O)C(Cl)=C2C)c(NC(C)=O)c1 [compound 22],.largecircle. (less than 20% in the percentage fading)
3,CCOc1cc(N(CC)Cc2ccccc2)ccc1N=C1C=C(NC(=O)C2CC2)C(=O)C=C1NC(C)=O [compound 5],.largecircle. (less than 20% in the percentage fading)
4,CCN(CC)c1ccc(N=C2C=C(NC(=O)C3CC3)C(=O)C=C2NC(C)=O)c(C)c1 [compound 3],.largecircle. (less than 20% in the percentage fading)
5,CCN(Cc1ccccc1)c1ccc(N=C2C=C(NC(=O)C3CCCC3)C(=O)C=C2NC(C)=O)c(C)c1 [compound 13],.largecircle. (less than 20% in the percentage fading)
6,CCN(CCNS(C)(=O)=O)c1ccc(N=C2C=C(NC(=O)C3CC3)C(=O)C=C2NC(C)=O)c(C)c1 [compound 6],.largecircle. (less than 20% in the percentage fading)
7,CCN(CCC#N)c1ccc(N=C2C=C(NC(=O)C3CC3)C(=O)C=C2NS(C)(=O)=O)c(NC(C)=O)c1 [compound 7],.largecircle. (less than 20% in the percentage fading)
8,CCOc1cc(N(CC)CC)ccc1N=C1C=CC(=O)C(NC(=O)C2CC2)=C1 [compound 4],.largecircle. (less than 20% in the percentage fading)
9,CCN(CC)c1ccc(N=C2C=CC(=O)C(NC(=O)C3CC3)=C2)c(NC(C)=O)c1 [compound 9],.largecircle. (less than 20% in the percentage fading)
10,CCN(c1ccccc1)c1ccc(N=C2C=C(NC(=O)C3CC3)C(=O)C(Cl)=C2C)c(Cl)c1 [compound 8],.largecircle. (less than 20% in the percentage fading)
11,CCN(CC)c1ccc(N=C2C=C(NC(=O)C3CCCC3)C(=O)C(Cl)=C2C)c(C)c1 [compound 15],.largecircle. (less than 20% in the percentage fading)
12,CCCCC1CC(C(=O)NC2=CC(=Nc3ccc(N(CC)CC)cc3C)C(C)=C(Cl)C2=O)C1 (stereo not drawn) [compound 12],.largecircle. (less than 20% in the percentage fading)

# Same assay, conditions: Table A3, Comparative Examples A1-A6, 50° C., 70 kJ/m^2
row,Light fastness,SMILES
1,Δ,"CNc1ccc(NC)c2c1C(=O)c1ccccc1C2=O [Comp. Ex. A1, C.I. Disperse Blue 14, reference compound]"
2,Δ,"CNc1ccc(O)c2c1C(=O)c1c(O)ccc(NC)c1C2=O [Comp. Ex. A4, C.I. Disperse Blue 26, reference compound]"

# Same assay, conditions: Table B2, dyes of Table B1, 50° C., 70 kJ/m^2
row,SMILES,Light fastness
1,CCOc1cc(N(CC)CC)ccc1N=C1C=CC(=O)C(NC(=O)C2C=CCCC2)=C1 (stereo not drawn) [Dye No. 8 in Table B1],.largecircle. (less than 20% in the percentage fading)
2,CCN(CC)c1ccc(N=C2C=C(NC(=O)C3=CCC=CC3)C(=O)C(Cl)=C2C)cc1 [Dye No. 18 in Table B1],.largecircle. (less than 20% in the percentage fading)
3,CCN(CC)c1ccc(N=C2C=C(NC(=O)C3CC=CCC3)C(=O)C(Cl)=C2C)c(C)c1 (stereo not drawn) [Dye No. 1 in Table B1],.largecircle. (less than 20% in the percentage fading)
4,CCN(c1ccccc1)c1ccc(N=C2C=C(NC(=O)C3=CCCC3)C(=O)C=C2NC(=O)NC)c(Cl)c1 [Dye No. 17 in Table B1],.largecircle. (less than 20% in the percentage fading)
5,CCN(CC)c1ccc(N=C2C=C(NC(=O)C3=CCC=CC3)C(=O)C=C2NC(C)=O)c(C)c1 [Dye No. 20 in Table B1],.largecircle. (less than 20% in the percentage fading)
6,CCN(CCNS(C)(=O)=O)c1ccc(N=C2C=C(NC(=O)C3CC=CC3)C(=O)C=C2NS(C)(=O)=O)c(C)c1 [Dye No. 14 in Table B1],.largecircle. (less than 20% in the percentage fading)
7,CCN(CC)c1ccc(N=C2C=C(NC(=O)C3CC=CCC3)C(=O)C=C2NC(C)=O)c(C)c1 (stereo not drawn) [Dye No. 3 in Table B1],.largecircle. (less than 20% in the percentage fading)
8,CCN(CCO)c1ccc(N=C2C=C(NC(=O)C3CC=CCC3)C(=O)C(Cl)=C2C)c(C)c1 (stereo not drawn) [Dye No. 2 in Table B1],.largecircle. (less than 20% in the percentage fading)
9,CCN(CCC#N)c1ccc(N=C2C=C(NC(=O)C3CC=CC3)C(=O)C(Cl)=C2C)c(NS(C)(=O)=O)c1 [Dye No. 13 in Table B1],.largecircle. (less than 20% in the percentage fading)
10,CCOc1cc(N(CC)CCO)ccc1N=C1C=C(NC(=O)C2=CCCCC2)C(=O)C=C1NC(C)=O [Dye No. 9 in Table B1],.largecircle. (less than 20% in the percentage fading)
11,CCN(CCOC)c1ccc(N=C2C=C(NC(=O)C3=CCC=CC3)C(=O)C=C2NC(C)=O)c(NC(C)=O)c1 [Dye No. 19 in Table B1],.largecircle. (less than 20% in the percentage fading)
12,CCN(c1ccccc1)c1ccc(N=C2C=C(NC(=O)C3CC=CC3)C(=O)C=C2NC(=O)NC)c(Cl)c1 [Dye No. 15 in Table B1],.largecircle. (less than 20% in the percentage fading)
13,CCN(CC)c1ccc(N=C2C=CC(=O)C(NC(=O)C3C=CCC=C3)=C2)c(NC(C)=O)c1 [Dye No. 11 in Table B1],.largecircle. (less than 20% in the percentage fading)
14,CCN(CCCl)c1ccc(N=C2C=C(NC(=O)C3CC=CCC3)C(=O)C(Cl)=C2C)c(NC(=O)NC)c1 (stereo not drawn) [Dye No. 7 in Table B1],.largecircle. (less than 20% in the percentage fading)
15,CCN(CC)c1ccc(N=C2C=C(NC(=O)C3CC=CCC3)C(=O)C(Cl)=C2C)c(NC(C)=O)c1 (stereo not drawn) [Dye No. 6 in Table B1],.largecircle. (less than 20% in the percentage fading)

# Same assay, conditions: Table B3, Comparative Examples B1-B6, 50° C., 70 kJ/m^2
row,Light fastness,SMILES
1,Δ,"CNc1ccc(NC)c2c1C(=O)c1ccccc1C2=O [Comp. Ex. A1, C.I. Disperse Blue 14, reference compound]"
2,Δ,"CNc1ccc(O)c2c1C(=O)c1c(O)ccc(NC)c1C2=O [Comp. Ex. A4, C.I. Disperse Blue 26, reference compound]"

row,SMILES,Light fastness
1,"CCN(CC)c1ccc(N=C2C=C(NC(=O)c3ccccc3)C(=O)C(Cl)=C2C)c(C)c1 [Comparative Example B6, reference compound]",.largecircle. (less than 20% in the percentage fading)

# Same assay, conditions: Table C2, dyes of Table C1, 50° C., 70 kJ/m^2
row,SMILES,Light fastness
1,CCN(CCCl)c1ccc(N=C2C=C(NC(=O)C3CC4C=CC3C4)C(=O)C(Cl)=C2C)c(NC(=O)NC)c1 (stereo not drawn) [Dye No. 9 in Table C1],.largecircle. (less than 20% in the percentage fading)
2,CCN(CCC#N)c1ccc(N=C2C=C(NC(=O)C3=CC4C=CC3C4)C(=O)C(Cl)=C2C)c(NS(C)(=O)=O)c1 (stereo not drawn) [Dye No. 14 in Table C1],.largecircle. (less than 20% in the percentage fading)
3,CCN(CC)c1ccc(N=C2C=CC(=O)C(NC(=O)C3CC4C=CC3C4)=C2)c(C)c1 (stereo not drawn) [Dye No. 2 in Table C1],.largecircle. (less than 20% in the percentage fading)
4,CCN(CC)c1ccc(N=C2C=C(NC(=O)C3CC4C=C(C)C3C4)C(=O)C(Cl)=C2C)c(C)c1 (stereo not drawn) [Dye No. 18 in Table C1],.largecircle. (less than 20% in the percentage fading)
5,CCN(CC)c1ccc(N=C2C=C(NC(=O)C3CC4C=CC3O4)C(=O)C(Cl)=C2C)c(C)c1 (stereo not drawn) [Dye No. 21 in Table C1],.largecircle. (less than 20% in the percentage fading)
6,CCN(CC)c1ccc(N=C2C=CC(=O)C(NC(=O)C3=CC4C=CC3C4)=C2)c(NC(C)=O)c1 (stereo not drawn) [Dye No. 12 in Table C1],.largecircle. (less than 20% in the percentage fading)
7,CCN(c1ccccc1)c1ccc(N=C2C=C(NC(=O)C3=CC4C=CC3C4)C(=O)C=C2NC(=O)NC)c(Cl)c1 (stereo not drawn) [Dye No. 15 in Table C1],.largecircle. (less than 20% in the percentage fading)
8,CCN(CC)c1ccc(N=C2C=C(NC(=O)C3CC4C=CC3N4C)C(=O)C(Cl)=C2C)c(C)c1 (stereo not drawn) [Dye No. 24 in Table C1],.largecircle. (less than 20% in the percentage fading)
9,CCN(Cc1ccccc1)c1ccc(N=C2C=C(NC(=O)C3=CC4C=CC3C4)C(=O)C=C2NC(C)=O)cc1 (stereo not drawn) [Dye No. 13 in Table C1],.largecircle. (less than 20% in the percentage fading)
10,CCC1=C(Cl)C(=O)C(NC(=O)C2CC3C=CC2C3)=CC1=Nc1ccc(N(CC)CC)cc1C (stereo not drawn) [Dye No. 7 in Table C1],.largecircle. (less than 20% in the percentage fading)
11,CCN(CC)c1ccc(N=C2C=C(NC(=O)C3CC4C=CC3S4)C(=O)C(Cl)=C2C)c(C)c1 (stereo not drawn) [Dye No. 22 in Table C1],.largecircle. (less than 20% in the percentage fading)
12,CCOc1cc(N(CC)CCO)ccc1N=C1C=C(NC(=O)C2CC3C=CC2C3)C(=O)C=C1NC(C)=O (stereo not drawn) [Dye No. 10 in Table C1],.largecircle. (less than 20% in the percentage fading)
13,CCN(CC)c1ccc(N=C2C=C(NC(=O)C3=CC4C=CC3C4)C(=O)C(Cl)=C2C)c(C)c1 (stereo not drawn) [Dye No. 11 in Table C1],.largecircle. (less than 20% in the percentage fading)
14,CCN(CC)c1ccc(N=C2C=C(NC(=O)C3CC4C=CC3C4)C(=O)C=C2NC(C)=O)c(C)c1 (stereo not drawn) [Dye No. 4 in Table C1],.largecircle. (less than 20% in the percentage fading)
15,CCOc1cc(N(CC)CC)c(OCC)cc1N=C1C=C(NC(=O)C2CC3C=C(C)C2C3)C(=O)C(Cl)=C1C (stereo not drawn) [Dye No. 19 in Table C1],.largecircle. (less than 20% in the percentage fading)
16,CCN(CC)c1ccc(N=C2C=C(NC(=O)C3CC4C=CC3C4)C(=O)C(Cl)=C2C)cc1 (stereo not drawn) [Dye No. 6 in Table C1],.largecircle. (less than 20% in the percentage fading)

# Same assay, conditions: Table C (C3), Comparative Examples C1-C6, 50° C., 70 kJ/m^2
row,Light fastness,SMILES
1,Δ,"CNc1ccc(NC)c2c1C(=O)c1ccccc1C2=O [Comp. Ex. A1, C.I. Disperse Blue 14, reference compound]"
2,Δ,"CNc1ccc(O)c2c1C(=O)c1c(O)ccc(NC)c1C2=O [Comp. Ex. A4, C.I. Disperse Blue 26, reference compound]"

row,SMILES,Light fastness
1,"CCN(CC)c1ccc(N=C2C=C(NC(=O)c3ccccc3)C(=O)C(Cl)=C2C)c(C)c1 [Comparative Example C6, reference compound]",.largecircle. (less than 20% in the percentage fading)

# — patent publication US5260257A, “Thermal transfer sheet” (Dai Nippon Printing Co., Ltd., priority 1991, dated 1993)
